# From patent publication US5948793A, “3-pyridyloxymethyl heterocyclic ether compounds useful in controlling neurotransmitter release” (Abbott Laboratories, priority 1995, dated 1999)
# pKi: −log10 of the molar value. Counter-ions that a name gives are not always drawn. Like-named read-outs stand apart in the source and are kept apart here.
# Experiments:
# [1] = target: neuronal nicotinic cholinergic channel receptors; experiment: [3H]-cytisine displacement binding to neuronal nicotinic cholinergic channel receptors; assay type: rat (crude synaptic membranes from whole rat brain); settings: read-out: Receptor Binding Ki
# Description: B. Protocol For Determination of Nicotinic Cholinergic Channel Receptor Binding Potencies of Ligands
# Binding of [^3 H]-cytisine ([^3 H]-CYT) to nicotinic receptors was accomplished using crude synaptic membrane preparations from whole rat brain (Pabreza et al., Molecular Pharmaol., 1990, 39:9). Washed membranes were stored at -80° C. prior to use. Frozen aliquots were slowly thawed and resuspended in 20 volumes of buffer (containing: 120 mM NaCl, 5 mM KCl, 2 mM MgCl2, 2 mM CaCl2 and 50 mM Tris-Cl, pH 7.4 @4° C.). After centrifuging at 20,000×g for 15 minutes, the pellets were resuspended in 30 volumes of buffer. Homogenate (containing […]) was added to triplicate tubes containing concentrations of test compound and [^3 H]-CYT (1.25 nM) in a final volume of 500 μL. Samples were incubated for 60 minutes at 4° C., then rapidly filtered through Whatman GF/B filters presoaked in 0.5% polyethylimine using 3×4 mL of ice-cold buffer. The filters are counted in 4 mL of Ecolume® (ICN). […] Alternately, data were expressed as a percentage of the total specific binding.
# [2] = system: nAChR evoked release of [3H]-dopamine, rat striatal slices; experiment: Striatal dopamine release assay (nAChR evoked release of [3H]-dopamine from superfused rat striatal slices); assay type: cell-based, rat (male Sprague-Dawley); settings: Table 1, relative to 100 nM (-)-nicotine
# Description: The protocol for this procedure follows below.
# A. Protocol for Determination of Striatal Dopamine Release.
# nAChR evoked release of [ring-2,5,6-^3 H]-dopamine (24.4 Ci/mmol) was measured in superfused rat striatal slices. Striata were dissected from two male Sprague-Dawley rats per experiment and sliced 0.35×0.25 mm by a McIlwain Tissue Chopper (Brinkman Instrument Co., Westbury, N.Y.). After two washes with Krebs-HEPES buffer (137 mM NaCl, 4.7 mM KCl, 1 mM MgSO4, 2.5 mM CaCl2, 1.25 mM NaH2 PO4, 10 mM glucose, 15 mM HEPES-NaOH, pH 7.4, containing 10 μM pargyline and 10 μM ascorbic acid), slices were preincubated for 10 minutes at 37° C. under 95%/5% O2 /CO2. After replacing the buffer, slices were labeled with 100 nM [^3 H]-dopamine for 25 min in Krebs-HEPES at 37° C. Aliquots of slices were placed in 18 superfusion chambers of a Brandel SP2000 superfusion apparatus (Brandel, Gaithersberg, Md.). Following 47 minutes of washout, slices were exposed to agonist at various concentrations for 4 minutes. Antagonists or inhibitors, when present were introduced 4 minutes prior to and during agonist exposure. Collected fractions were counted in 5 mL of Ecolume. Tissue was recovered from superfusion chambers, solubilized with 1 mL of Solvable™ (DuPont-NEN) and counted in 15 mL of Ecolume. Fractional release of [^3 H]-dopamine was calculated from radioactivity above baseline as a fraction of total radioactivity.
# [3] = system: release of dopamine and acetylcholine; settings: cited from earlier work
# [4] = example concentration *** = 0.1 μ
# [5] = Table 1, [3H]-cytisine 1.25 nM, 60 min at 4° C.
# [6] = example concentration * = 10 μM
# [7] = example concentration ** = 1 μM
Structure (SMILES),pKi [1],"pKi [1, 5]","Dopamine Release relative to Nicotine [2, 6]",further results
"Cc1ccc(OC[C@@H]2CCCN2)cn1.Cl.Cl [Example 18, 6-methyl-3-(2-(S)-pyrrolidinylmethoxy)pyridine dihydrochloride]",9.55,–,–,"Dopamine Release relative to Nicotine [2, 4]: 1.0"
"Cc1ccc(OC[C@@H]2CCN2C)cn1.Cl.Cl [Example 59, 3-((1-methyl-2-(S)-azetidinyl)methoxy)-6-methylpyridine dihydrochloride]",–,8.35,0.7,–
"CN1CCC[C@@H]1COc1cccnc1.Cl [Example 1, 3-((1-methyl-2-(R)-pyrrolidinyl)methoxy)pyridine hydrochloride]",–,7.64,0.08,–
"Cl.Cl.Clc1cncc(OC[C@H]2CCCN2)c1 [Example 33, 5-chloro-3-(2-(R)-pyrrolidinylmethoxy)pyridine dihydrochloride]",–,9.70,–,"Dopamine Release relative to Nicotine [2, 7]: 0.62"
"CN1CCC[C@H]1COc1cncc(Cl)c1.Cl.Cl [Example 16, 5-chloro-3-((1-methyl-2-(S)-pyrrolidinyl)methoxy)pyridine dihydrochloride]",–,–,–,"Dopamine Release relative to Nicotine [2, 7]: 1.0"
"Cc1ccncc1OC[C@@H]1CCCN1C.Cl.Cl [Example 46, 4-methyl-3-((1-methyl-2-(S)-pyrrolidinyl)methoxy)pyridine dihydrochloride]",–,8.40,0.85,–
"Clc1ccc(OC[C@@H]2CCN2)cn1 [Example 52, 3-(2-(S)-azetidinylmethoxy)-6-chloropyridine dihydrochloride]",–,10.40,1.0,–
"CN1CC[C@H]1COc1cccnc1.Cl.Cl [Example 10, 3-((1-methyl-2-(S)-azetidinyl)methoxy)pyridine dihydrochloride]",9.60,–,1.0,–
"CN1CC[C@H]1COc1cnccn1.Cl.Cl [Example 8, 2-((1-methyl-2-(S)-azetidinyl)methoxy)pyrazine dihydrochloride]",–,7.48,–,"Dopamine Release relative to Nicotine [2, 7]: 0.55"
"Cc1ccc(OC[C@@H]2CCCN2C)cn1.Cl.Cl [Example 19, 6-methyl-3-((1-methyl-2-(S)-pyrrolidinyl)methoxy)pyridine dihydrochloride]",8.83,–,–,"Dopamine Release relative to Nicotine [2, 4]: 0.78"
"CN1CCC[C@H]1COc1cnc2ccccc2c1.Cl [Example 31, 3-(1-methyl-2-(S)-pyrrolidinylmethoxy)quinoline hydrochloride]",–,9.15,0.15,–
"O=C(O)/C=C/C(=O)O.c1cncc(OC[C@@H]2CCCN2)c1 [Example 14, 3-(2-(S)-pyrrolidinylmethoxy)pyridine fumarate]",9.85,–,–,"Dopamine Release relative to Nicotine [2, 7]: 1.0"
COC(=O)C(c1ccccc1)C1CCCCN1 (stereo not shown) [methylphenidate],–,–,–,release of dopamine and acetylcholine [3]: enhance the release of dopamine and acetylcholine
"Cc1ccc(OC[C@H]2CCCN2)cn1.Cl.Cl [Example 37, 6-methyl-3-(2-(R)-pyrrolidinylmethoxy)pyridine dihydrochloride]",9.30,–,0.8,–
"CN1CCC[C@H]1COc1cccnc1.O=C(O)/C=C/C(=O)O [Example 4, 3-((1-methyl-2-(S)-pyrrolidinyl)methoxy)pyridine fumarate]",9.70,–,1.0,–
C[C@H](N)Cc1ccccc1 [d-amphetamine],–,–,–,release of dopamine and acetylcholine [3]: enhance the release of dopamine and acetylcholine
"CCN1CCC[C@H]1COc1cccnc1.Cl.Cl [Example 38, 3-((1-ethyl-2(S)-pyrrolidinyl)methoxy)pyridine dihydrochloride]",7.89,–,0.6,–
